Experimental data reported in patent publication US20160060322A1, “RELAXIN-LIKE PEPTIDES AND USES THEREOF” (ANGION BIOMEDICA CORP., priority 2012, published 2016).

System: HEK-293T cells
Test: cAMP production in parental HEK-293T cells lacking RXFP1
Type: cell-based
Conditions: parental HEK-293T cells (lack RXFP1); H2R 10 ng/mL

Substance: H2R: ~6 kd peptide hormone, 24 amino acid A chain (SEQ ID NO:5) and 29 amino acid B chain (SEQ ID NO:6) linked by disulfide bridges (chain 1 ZLYSALANKCCHVGCTKRSLARFC; chain 2 DSWMEEVIKLCGRELVRAQIAICGMSTWS; disulfide bridges; listed as Homo sapiens)
- cAMP response in parental cells: no cAMP response
